Measurements taken from patent US7964607B2, “Pyrazolo[3,4-d]pyrimidine compounds” (Pfizer Inc., priority 2007, dated 2011).

Biological target: T1, human recombinant PDE9 enzyme (Homo sapiens, UniProt O76083)
T1 construct: made in house; host or cells: SF-9 insect cells
Assay: Phosphodiesterase 9 (PDE9) inhibitory activity, Scintillation Proximity (SPA) assay
Assay type: biochemical
Details: not given
Procedure, shortened: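 Scintillation proximity read-out of [3H]cGMP hydrolysis after 30 min at room temperature, with enzyme addition starting the reaction. The enzyme was human recombinant PDE9 expressed in SF-9 cells, titrated to keep substrate turnover at 20% or less. Compound wells held 2% DMSO final, and background was defined with excess PDE inhibitor.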

T1 sequence (O76083 whole entry): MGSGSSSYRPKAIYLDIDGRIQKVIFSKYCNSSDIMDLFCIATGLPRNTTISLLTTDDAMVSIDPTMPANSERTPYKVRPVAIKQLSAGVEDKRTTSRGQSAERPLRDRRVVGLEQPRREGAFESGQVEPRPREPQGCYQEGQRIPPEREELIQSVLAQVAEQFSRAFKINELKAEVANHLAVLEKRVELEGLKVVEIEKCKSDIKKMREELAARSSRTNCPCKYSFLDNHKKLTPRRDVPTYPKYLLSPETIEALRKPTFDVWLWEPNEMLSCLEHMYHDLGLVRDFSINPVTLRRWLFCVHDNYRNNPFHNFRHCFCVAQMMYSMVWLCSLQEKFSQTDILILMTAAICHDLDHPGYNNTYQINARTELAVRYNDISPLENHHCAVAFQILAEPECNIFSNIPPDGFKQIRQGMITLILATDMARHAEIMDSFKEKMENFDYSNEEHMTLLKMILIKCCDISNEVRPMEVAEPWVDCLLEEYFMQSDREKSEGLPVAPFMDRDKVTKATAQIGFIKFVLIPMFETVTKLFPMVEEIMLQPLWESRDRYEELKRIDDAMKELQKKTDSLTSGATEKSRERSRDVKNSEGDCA

SMILES | IC50 [nM]
C[C@@H]1CN(Cc2ccc(F)cc2)C[C@H]1c1nc2c(cnn2C2CCOCC2)c(=O)[nH]1 [Example 96, 6-[(3S,4S)-1-(4-fluorobenzyl)-4-methylpyrrolidin-3-yl]-1-(tetrahydro-2H-pyran-4-yl)-1,5-dihydro-4H-pyrazolo[3,4-d]pyrimidin-4-one] | 7.13
Cc1ncc(CN2C[C@@H](C)[C@H](c3nc4c(cnn4C4CCOCC4)c(=O)[nH]3)C2)cn1 [Example 73, 6-{(3S,4S)-4-methyl-1-[(2-methylpyrimidin-5-yl)methyl]pyrrolidin-3-yl}-1-(tetrahydro-2H-pyran-4-yl)-1,5-dihydro-4H-pyrazolo[3,4-d]pyrimidin-4-one] | 6.01

Same assay, conditions: human recombinant PDE9 from SF-9 cells; 50 nM [3H]cGMP; room temperature, 30 min; Examples 3-114; read-out: G5678A (U): IC50

SMILES | IC50 [nM]
C[C@@H]1CN(Cc2cnc3ccccc3c2)C[C@H]1c1nc2c(cnn2C2CCOCC2)c(=O)[nH]1 [Example 77, 6-[(3S,4S)-4-methyl-1-(quinolin-3-ylmethyl)pyrrolidin-3-yl]-1-(tetrahydro-2H-pyran-4-yl)-1,5-dihydro-4H-pyrazolo[3,4-d]pyrimidin-4-one] | 1.24
Cc1nn(C2CCOCC2)c2nc([C@@H]3CN(Cc4cccnc4)C[C@H]3C)[nH]c(=O)c12 [Example 92, 3-methyl-6-[(3S,4S)-4-methyl-1-(pyridin-3-ylmethyl)pyrrolidin-3-yl]-1-(tetrahydro-2H-pyran-4-yl)-1,5-dihydro-4H-pyrazolo[3,4-d]pyrimidin-4-one] | 23.3
CC[C@@H]1CN(Cc2ccc(OC)nc2)C[C@H]1c1nc2c(cnn2C(C)C)c(=O)[nH]1 (racemic) [Example 45, 6-{(3,4-trans)-4-ethyl-1-[(6-methoxypyridin-3-yl)methyl]pyrrolidin-3-yl}-1-isopropyl-1,5-dihydro-4H-pyrazolo[3,4-d]pyrimidin-4-one] | 38.7
Cc1nn(C2CCOCC2)c2nc([C@@H]3CN(Cc4ccccc4)C[C@H]3C)[nH]c(=O)c12 [Example 88, 6-[(3S,4S)-1-benzyl-4-methylpyrrolidin-3-yl]-3-methyl-1-(tetrahydro-2H-pyran-4-yl)-1,5-dihydro-4H-pyrazolo[3,4-d]pyrimidin-4-one] | 17.9
COc1cccc(CN2C[C@@H](C)[C@H](c3nc4c(cnn4C4CCOCC4)c(=O)[nH]3)C2)c1 [Example 104, 6-[(3S,4S)-1-(3-methoxybenzyl)-4-methylpyrrolidin-3-yl]-1-(tetrahydro-2H-pyran-4-yl)-1,5-dihydro-4H-pyrazolo[3,4-d]pyrimidin-4-one] | 3.98
COc1ccc(CN2C[C@@H](C)[C@H](c3nc4c(cnn4C4CCCC4)c(=O)[nH]3)C2)cn1 (racemic) [Example 25, 1-cyclopentyl-6-{(3,4-trans)-1-[(6-methoxypyridin-3-yl)methyl]-4-methylpyrrolidin-3-yl}-1,5-dihydro-4H-pyrazolo[3,4-d]pyrimidin-4-one] | 9.07
C[C@@H]1CN(Cc2c(F)cccc2F)C[C@H]1c1nc2c(cnn2C2CCOCC2)c(=O)[nH]1 [Example 106, 6-[(3S,4S)-1-(26-difluorobenzyl)-4-methylpyrrolidin-3-yl]-1-(tetrahydro-2H-pyran-4-yl)-1,5-dihydro-4H-pyrazolo[3,4-d]pyrimidin-4-one] | 8.06
C[C@@H]1CN(Cc2ccccc2)C[C@H]1c1nc2c(cnn2C2CCSCC2)c(=O)[nH]1 [Example 102, 6-[(3S,4S)-1-benzyl-4-methylpyrrolidin-3-yl]-1-(tetrahydro-2H-thiopyran-4-yl)-1,5-dihydro-4H-pyrazolo[3,4-d]pyrimidin-4-one] | 19.7
CC[C@@H]1CN(Cc2ccccc2)C[C@H]1c1nc2c(cnn2C(C)C)c(=O)[nH]1 (racemic) [Example 39, 6-[(3,4-trans)-1-benzyl-4-ethylpyrrolidin-3-yl]-1-isopropyl-1,5-dihydro-4H-pyrazolo[3,4-d]pyrimidin-4-one] | 58.1
CC(C)n1ncc2c(=O)[nH]c([C@@H]3CN(Cc4ccnc5ccccc45)C[C@H]3C)nc21 [Example 67] | 9.74

Same assay, conditions: human recombinant PDE9 from SF-9 cells; 50 nM [3H]cGMP; room temperature, 30 min; additional compounds Ex. 115-228; read-out: G5678A (U):IC50

SMILES | IC50 [nM]
Cc1ccc(CN2C[C@@H](C)[C@H](c3nc4c(cnn4C4CCCC4)c(=O)[nH]3)C2)cc1 (racemic) [Example 136, 1-cyclopentyl-6-[(3,4-trans)-4-methyl-1-(4-methylbenzyl)pyrrolidin-3-yl]-1,5-dihydro-4H-pyrazolo[3,4-d]pyrimidin-4-one] | 132
C[C@@H]1CN(Cc2ccc3c(c2)OCCO3)C[C@H]1c1nc2c(cnn2C2CCCC2)c(=O)[nH]1 (racemic) [Example 122, 1-cyclopentyl-6-[(3,4-trans)-1-(2-3-dihydro-1,4-benzodioxin-6-ylmethyl)-4-methylpyrrolidin-3-yl]-1,5-dihydro-4H-pyrazolo[3,4-d]pyrimidin-4-one] | 56.4
C[C@@H]1CN(Cc2ccc3nsnc3c2)C[C@H]1c1nc2c(cnn2C2CCCC2)c(=O)[nH]1 (racemic) [Example 208, 6-[(3,4-trans)-1-(2,1,3-benzothiadiazol-5-ylmethyl)-4-methylpyrrolidin-3-yl]-1-cyclopentyl-1,5-dihydro-4H-pyrazolo[3,4-d]pyrimidin-4-one] | 7.13
CC(C)Oc1ccccc1CN1C[C@@H](C)[C@H](c2nc3c(cnn3C3CCCC3)c(=O)[nH]2)C1 (racemic) [Example 181, 1-cyclopentyl-6-[(3,4-trans)-1-(2-isopropoxybenzyl)-4-methylpyrrolidin-3-yl]-1,5-dihydro-4H-pyrazolo[3,4-d]pyrimidin-4-one] | 134
C[C@@H]1CN(Cc2ccccc2F)C[C@H]1c1nc2c(cnn2C2CCCC2)c(=O)[nH]1 (racemic) [Example 218, 1-cyclopentyl-6-[(3,4-trans)-1-(2-fluorobenzyl)-4-methylpyrrolidin-3-yl]-1,5-dihydro-4H-pyrazolo[3,4-d]pyrimidin-4-one] | 15.6
C[C@@H]1CN(Cc2cc(F)cc(F)c2)C[C@H]1c1nc2c(cnn2C2CCCC2)c(=O)[nH]1 (racemic) [Example 227, 1-cyclopentyl-6-[(3,4-trans)-1-(3,5-difluorobenzyl)-4-methylpyrrolidin-3-yl]-1,5-dihydro-4H-pyrazolo[3,4-d]pyrimidin-4-one] | 7.42
Cc1ncc(CN2C[C@@H](C)[C@H](c3nc4c(cnn4C4CCCC4)c(=O)[nH]3)C2)cn1 (racemic) [Example 167, 1-cyclopentyl-6-{(3,4-trans)-4-methyl-1-[(2-methylpyrimidin-5-yl)methyl]pyrrolidin-3-yl}-1,5-dihydro-4H-pyrazolo[3,4-d]pyrimidin-4-one] | 40.7
C[C@@H]1CN(Cc2cc(Cl)ccc2Cl)C[C@H]1c1nc2c(cnn2C2CCCC2)c(=O)[nH]1 (racemic) [Example 124, 1-cyclopentyl-6-[(3,4-trans)-1-(2,5-dichlorobenzyl)-4-methylpyrrolidin-3-yl]-1,5-dihydro-4H-pyrazolo[3,4-d]pyrimidin-4-one] | 80.9
C[C@@H]1CN(Cc2ccc(-n3ccnc3)cc2)C[C@H]1c1nc2c(cnn2C2CCCC2)c(=O)[nH]1 (racemic) [Example 123, 1-cyclopentyl-6-{(3,4-trans)-1-[4-(1H-imidazol-1-yl)benzyl]-4-methylpyrrolidin-3-yl}-1,5-dihydro-4H-pyrazolo[3,4-d]pyrimidin-4-one] | 39.3
C[C@@H]1CN(Cc2ccc(F)c(Cl)c2)C[C@H]1c1nc2c(cnn2C2CCCC2)c(=O)[nH]1 (racemic) [Example 158, 6-[(3,4-trans)-1-(3-chloro-4-fluorobenzyl)-4-methylpyrrolidin-3-yl]-1-cyclopentyl-1,5-dihydro-4H-pyrazolo[3,4-d]pyrimidin-4-one] | 50.9
C[C@@H]1CN(Cc2ccccc2OC(F)(F)F)C[C@H]1c1nc2c(cnn2C2CCCC2)c(=O)[nH]1 (racemic) [Example 224, 1-cyclopentyl-6-{(3,4-trans)-4-methyl-1-[2-(trifluoromethoxy)benzyl]pyrrolidin-3-yl}-1,5-dihydro-4H-pyrazolo[3,4-d]pyrimidin-4-one] | 116
COc1ccccc1CN1C[C@@H](C)[C@H](c2nc3c(cnn3C3CCCC3)c(=O)[nH]2)C1 (racemic) [Example 211, 1-cyclopentyl-6-[(3,4-trans)-1-(2-methoxybenzyl)-4-methylpyrrolidin-3-yl]-1,5-dihydro-4H-pyrazolo[3,4-d]pyrimidin-4-one] | 39.8
COc1cc(CN2C[C@@H](C)[C@H](c3nc4c(cnn4C4CCCC4)c(=O)[nH]3)C2)ccc1C (racemic) [Example 141, 1-cyclopentyl-6-[(3,4-trans)-1-(3-methoxy-4-methylbenzyl)-4-methylpyrrolidin-3-yl]-1,5-dihydro-4H-pyrazolo[3,4-d]pyrimidin-4-one] | 53.1
CCOc1ccc(CN2C[C@@H](C)[C@H](c3nc4c(cnn4C4CCCC4)c(=O)[nH]3)C2)cc1 (racemic) [Example 173] | 64
C[C@@H]1CN(Cc2ccc3c(c2)CC(C)(C)O3)C[C@H]1c1nc2c(cnn2C2CCCC2)c(=O)[nH]1 (racemic) [Example 175, 1-cyclopentyl-6-{(3,4-trans)-1-[(2,2-dimethyl-2,3-dihydro-1-benzofuran-5-yl)methyl]-4-methylpyrrolidin-3-yl}-1,5-dihydro-4H-pyrazolo[3,4-d]pyrimidin-4-one] | 74.8
C[C@@H]1CN(Cc2ccc(Cl)cc2F)C[C@H]1c1nc2c(cnn2C2CCCC2)c(=O)[nH]1 (racemic) [Example 154, 6-[(3,4-trans)-1-(4-chloro-2-fluorobenzyl)-4-methylpyrrolidin-3-yl]-1-cyclopentyl-1,5-dihydro-4H-pyrazolo[3,4-d]pyrimidin-4-one] | 175
C[C@@H]1CN(Cc2ccc(F)cc2Cl)C[C@H]1c1nc2c(cnn2C2CCCC2)c(=O)[nH]1 (racemic) [Example 150, 6-[(3,4-trans)-1-(2-chloro 4-fluorobenzyl)-4-methylpyrrolidin-3-yl]-1-cyclopentyl-1,5-dihydro-4H-pyrazolo[3,4-] pyrimidin-4-one] | 93.5
